Results: PubChem BioAssay AID1963982 (Molecular Pharmacology Branch, DTP, NCI, 2024)

Test system: 313798-341-R-J2-PDC spheroids, viability
Assay: Anticancer human tumor 313798-341-R-J2-PDC patient-derived cervical squamous cell carcinoma cell line growth inhibition [PI3K]
Conditions: spheroids with HUVEC and MSC; for IC50: curve of first compound; for viability, T/C: stronger effect = lower value
Summary of the method: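 Agents were dosed from a top concentration near clinical Cmax (otherwise 10 microM) in half-log decrements, alone or combined with PI3K inhibitors. The spheroids contain tumor cells plus endothelial (HUVEC) and MSC stroma; viability is measured.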

[1] = second compound 0.0316 µM, first compound 0.0316 µM
[2] = second compound 0.0316 µM, first compound 0.1 µM
[3] = second compound 0.0316 µM, first compound 0.316 µM
[4] = second compound 0.0316 µM, first compound 1 µM
[5] = second compound 0.0316 µM, first compound 3.16 µM
[6] = second compound 0.0316 µM, first compound 10 µM
[7] = second compound 0.1 µM, first compound 0.0316 µM
[8] = second compound 0.1 µM, first compound 0.1 µM
[9] = second compound 0.1 µM, first compound 0.316 µM
[10] = second compound 0.1 µM, first compound 1 µM
[11] = second compound 0.1 µM, first compound 3.16 µM
[12] = second compound 0.1 µM, first compound 10 µM
[13] = second compound 0.316 µM, first compound 0.0316 µM
[14] = second compound 0.316 µM, first compound 0.1 µM
[15] = second compound 0.316 µM, first compound 0.316 µM
[16] = second compound 0.316 µM, first compound 1 µM
[17] = second compound 0.316 µM, first compound 3.16 µM
[18] = second compound 0.316 µM, first compound 10 µM
[19] = second compound 1 µM, first compound 0.0316 µM
[20] = second compound 1 µM, first compound 0.1 µM
[21] = second compound 1 µM, first compound 0.316 µM
[22] = second compound 1 µM, first compound 1 µM
[23] = second compound 1 µM, first compound 3.16 µM
[24] = second compound 1 µM, first compound 10 µM
[25] = second compound 3.16 µM, first compound 0.0316 µM
[26] = second compound 3.16 µM, first compound 0.1 µM
[27] = second compound 3.16 µM, first compound 0.316 µM
[28] = second compound 3.16 µM, first compound 1 µM
[29] = second compound 3.16 µM, first compound 3.16 µM
[30] = second compound 3.16 µM, first compound 10 µM
[31] = second compound 10 µM, first compound 0.0316 µM
[32] = second compound 10 µM, first compound 0.1 µM
[33] = second compound 10 µM, first compound 0.316 µM
[34] = second compound 10 µM, first compound 1 µM
[35] = second compound 10 µM, first compound 3.16 µM
[36] = second compound 10 µM, first compound 10 µM
[37] = second compound 0.0316 µM, first compound 0.00316 µM
[38] = second compound 0.0316 µM, first compound 0.01 µM
[39] = second compound 0.1 µM, first compound 0.00316 µM
[40] = second compound 0.1 µM, first compound 0.01 µM
[41] = second compound 0.316 µM, first compound 0.00316 µM
[42] = second compound 0.316 µM, first compound 0.01 µM
[43] = second compound 1 µM, first compound 0.00316 µM
[44] = second compound 1 µM, first compound 0.01 µM
[45] = second compound 3.16 µM, first compound 0.00316 µM
[46] = second compound 3.16 µM, first compound 0.01 µM
[47] = second compound 10 µM, first compound 0.00316 µM
[48] = second compound 10 µM, first compound 0.01 µM
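Further: spheroids exposed to compounds for seven days.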
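Wherever viability, T/C is given: 100% = DMSO vehicle control viability.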

For `CC(C)NCC(C(=O)N1CCN(c2ncnc3c2C(C)CC3O)CC1)c1ccc(Cl)cc1` (stereo not drawn) + Cc1nc(NC(=O)N2CCCC2C(N)=O)sc1-c1ccnc(C(C)(C)C(F)(F)F)c1, the IC50 (second compound 0.0316 µM) was 2080 nM, the IC50 (second compound 0.1 µM) was 2770 nM and the IC50 (second compound 0.316 µM) was 1620 nM. The IC50 (second compound 1 µM) was 1420 nM, the IC50 (second compound 3.16 µM) was 345 nM and the IC50 (second compound 10 µM) was less than 31.6 nM. It also gave a viability, T/C [1] of 118%, a viability, T/C [2] of 100% and a viability, T/C [3] of 88.7%. The viability, T/C [4] was 65.7%, the viability, T/C [5] was 37.8% and the viability, T/C [6] was 32.4%. For the same molecule, the viability, T/C [7] was 107%, the viability, T/C [8] was 102% and the viability, T/C [9] was 87.8%. The viability, T/C [10] was 72.4%, the viability, T/C [11] was 45.3% and the viability, T/C [12] was 33.6%. For the same molecule, the viability, T/C [13] was 101%, the viability, T/C [14] was 93% and the viability, T/C [15] was 94%. For the same molecule, the viability, T/C [16] was 58.5%, the viability, T/C [17] was 39.9% and the viability, T/C [18] was 32.7%. For the same molecule, the viability, T/C [19] was 84.9%, the viability, T/C [20] was 97.4% and the viability, T/C [21] was 86.2%. It also gave a viability, T/C [22] of 55.3%, a viability, T/C [23] of 39.2% and a viability, T/C [24] of 30.3%. The viability, T/C [25] was 65.9%, the viability, T/C [26] was 58.6% and the viability, T/C [27] was 49.4%. It also gave a viability, T/C [28] of 45.8%, a viability, T/C [29] of 32.7% and a viability, T/C [30] of 30.2%. The viability, T/C [31] was 34%, the viability, T/C [32] was 33.5% and the viability, T/C [33] was 34.6%. The viability, T/C [34] was 34.3%, the viability, T/C [35] was 27.8% and the viability, T/C [36] was 22.3%.
For `CCN1CCN(Cc2ccc(Nc3ncc(F)c(-c4cc(F)c5nc(C)n(C(C)C)c5c4)n3)nc2)CC1` + Cc1nc(NC(=O)N2CCCC2C(N)=O)sc1-c1ccnc(C(C)(C)C(F)(F)F)c1, the IC50 (second compound 0.0316 µM) was greater than 1000 nM, the IC50 (second compound 0.1 µM) was greater than 1000 nM and the IC50 (second compound 0.316 µM) was greater than 1000 nM. It also gave an IC50 (second compound 1 µM) greater than 1000 nM, an IC50 (second compound 3.16 µM) greater than 1000 nM and an IC50 (second compound 10 µM) of less than 3.16 nM. The viability, T/C [37] was 106%, the viability, T/C [38] was 104% and the viability, T/C [1] was 109%. It also gave a viability, T/C [2] of 108%, a viability, T/C [3] of 131% and a viability, T/C [4] of 129%. It also gave a viability, T/C [39] of 100%, a viability, T/C [40] of 104% and a viability, T/C [7] of 111%. For the same molecule, the viability, T/C [8] was 104%, the viability, T/C [9] was 126% and the viability, T/C [10] was 131%. The viability, T/C [41] was 96.9%, the viability, T/C [42] was 102% and the viability, T/C [13] was 112%. The viability, T/C [14] was 112%, the viability, T/C [15] was 114% and the viability, T/C [16] was 114%. The viability, T/C [43] was 93.2%, the viability, T/C [44] was 102% and the viability, T/C [19] was 94.2%. The viability, T/C [20] was 110%, the viability, T/C [21] was 88.2% and the viability, T/C [22] was 80.9%. For the same molecule, the viability, T/C [45] was 63.6%, the viability, T/C [46] was 62.6% and the viability, T/C [25] was 56.2%. It also gave a viability, T/C [26] of 59.9%, a viability, T/C [27] of 58.4% and a viability, T/C [28] of 69%. It also gave a viability, T/C [47] of 37%, a viability, T/C [48] of 37.4% and a viability, T/C [31] of 34.3%. It also gave a viability, T/C [32] of 35.8%, a viability, T/C [33] of 41.4% and a viability, T/C [34] of 45.8%.
`C[C@@H](NC(=O)c1ncnc(N)c1Cl)c1ncc(C(=O)Nc2cc(C(F)(F)F)c(Cl)cn2)s1` + Cc1nc(NC(=O)N2CCCC2C(N)=O)sc1-c1ccnc(C(C)(C)C(F)(F)F)c1 gave an IC50 (second compound 0.0316 µM) greater than 10000 nM, an IC50 (second compound 0.1 µM) greater than 10000 nM and an IC50 (second compound 0.316 µM) greater than 10000 nM. It also gave an IC50 (second compound 1 µM) greater than 10000 nM, an IC50 (second compound 3.16 µM) greater than 10000 nM and an IC50 (second compound 10 µM) of less than 31.6 nM. The viability, T/C [1] was 106%, the viability, T/C [2] was 93.3% and the viability, T/C [3] was 103%. It also gave a viability, T/C [4] of 101%, a viability, T/C [5] of 108% and a viability, T/C [6] of 107%. It also gave a viability, T/C [7] of 104%, a viability, T/C [8] of 112% and a viability, T/C [9] of 92.8%. For the same molecule, the viability, T/C [10] was 111%, the viability, T/C [11] was 115% and the viability, T/C [12] was 113%. It also gave a viability, T/C [13] of 111%, a viability, T/C [14] of 121% and a viability, T/C [15] of 104%. The viability, T/C [16] was 105%, the viability, T/C [17] was 110% and the viability, T/C [18] was 109%. For the same molecule, the viability, T/C [19] was 104%, the viability, T/C [20] was 92% and the viability, T/C [21] was 89.7%. The viability, T/C [22] was 101%, the viability, T/C [23] was 98.6% and the viability, T/C [24] was 88%. The viability, T/C [25] was 63.7%, the viability, T/C [26] was 60% and the viability, T/C [27] was 69.2%. For the same molecule, the viability, T/C [28] was 71.1%, the viability, T/C [29] was 64.9% and the viability, T/C [30] was 58.4%. The viability, T/C [31] was 31.8%, the viability, T/C [32] was 35.1% and the viability, T/C [33] was 38.2%. For the same molecule, the viability, T/C [34] was 33.4%, the viability, T/C [35] was 39.6% and the viability, T/C [36] was 39.5%.
For `Cn1ncnc1[C@H]1c2n[nH]c(=O)c3cc(F)cc(c23)N[C@@H]1c1ccc(F)cc1` + Cc1nc(NC(=O)N2CCCC2C(N)=O)sc1-c1ccnc(C(C)(C)C(F)(F)F)c1, the IC50 (second compound 0.0316 µM) was greater than 100 nM, the IC50 (second compound 0.1 µM) was greater than 100 nM and the IC50 (second compound 0.316 µM) was greater than 100 nM. The IC50 (second compound 1 µM) was greater than 100 nM, the IC50 (second compound 3.16 µM) was greater than 100 nM and the IC50 (second compound 10 µM) was less than 0.316 nM. It also gave a viability, T/C (second compound 0.0316 µM, first compound 0.000316 µM) of 112%, a viability, T/C (second compound 0.0316 µM, first compound 0.001 µM) of 90% and a viability, T/C [37] of 97.6%. The viability, T/C [38] was 96.1%, the viability, T/C [1] was 93.9% and the viability, T/C [2] was 95.7%. The viability, T/C (second compound 0.1 µM, first compound 0.000316 µM) was 98.7%, the viability, T/C (second compound 0.1 µM, first compound 0.001 µM) was 103% and the viability, T/C [39] was 98.2%. The viability, T/C [40] was 97.8%, the viability, T/C [7] was 92.6% and the viability, T/C [8] was 87%. The viability, T/C (second compound 0.316 µM, first compound 0.000316 µM) was 97.7%, the viability, T/C (second compound 0.316 µM, first compound 0.001 µM) was 100% and the viability, T/C [41] was 110%. The viability, T/C [42] was 90.7%, the viability, T/C [13] was 102% and the viability, T/C [14] was 80.8%. The viability, T/C (second compound 1 µM, first compound 0.000316 µM) was 92.2%, the viability, T/C (second compound 1 µM, first compound 0.001 µM) was 86.3% and the viability, T/C [43] was 82.9%. For the same molecule, the viability, T/C [44] was 72.5%, the viability, T/C [19] was 79.1% and the viability, T/C [20] was 71.5%. It also gave a viability, T/C (second compound 3.16 µM, first compound 0.000316 µM) of 59.6%, a viability, T/C (second compound 3.16 µM, first compound 0.001 µM) of 61% and a viability, T/C [45] of 59%. It also gave a viability, T/C [46] of 54.9%, a viability, T/C [25] of 59.6% and a viability, T/C [26] of 49.4%. It also gave a viability, T/C (second compound 10 µM, first compound 0.000316 µM) of 35.9%, a viability, T/C (second compound 10 µM, first compound 0.001 µM) of 36.8% and a viability, T/C [47] of 38.2%. The viability, T/C [48] was 34.2%, the viability, T/C [31] was 33.2% and the viability, T/C [32] was 28.3%.
